Test results published in US7011839B2, “Otic microbial combination for treatment of animals with ruptured tympanic membrane” (Baya Corporation, priority 2000, dated 2006).

Legend:
Experiment in all cases: MIC of each active ingredient (NCCLS agar plates)
Type in all cases: cell-based
[1] = tested on: Candida; conditions: at the concentrations tested
Experimental: (§1) An in vitro microbiology study of the combination of the Enrofloxacin (quinolone) and sulfadiazine was conducted on multiple canine otic pathogens. The study was conducted under the National Committee for Clinical Laboratory Standards (NCCLS) guidelines employing ATCC control organisms for each agar plate tested. Initially, minimum inhibitory concentrations (MICs) were established for each active ingredient.

[2] = tested on: common dermal (otic) pathogens
Experimental: as §1

[3] = tested on: Malassezia; conditions: at the concentrations tested
Experimental: as §1

## CCN1CCN(c2cc3c(cc2F)c(=O)c(C(=O)O)cn3C2CC2)CC1 [Enrofloxacin]
[1]
  Effectiveness on Candida: not effective
[2]
  Activity on common dermal (otic) pathogens, based on MICs: active
[3]
  Effectiveness on Malassezia: not effective
